Results published in the supplement of paper PMC10307832.

Tests used:
Test in all cases: relative viability (nuclei count vs DMSO), 5 days (fraction); higher = more cells survive
[1] = compound: CS(=O)(=O)c1ccc(C(=O)Nc2ccc(Cl)c(-c3ccccn3)c2)c(Cl)c1 [Vismodegib] + Cc1cc(Nc2cc(N3CCN(C)CC3)nc(Sc3ccc(NC(=O)C4CC4)cc3)n2)n[nH]1 [Tozasertib] (partner 0.1 µM)
Summary of the method: (§1)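 Each reported value is a median over duplicate plates. It expresses relative viability: treated-well nuclei count divided by vehicle-well nuclei count. Lung cancer cell lines in 1536-well plates were dosed by pin tool a day after seeding, alone with one drug or with a fixed anchor-drug dose plus five library-drug doses (not always all listed) in √10 steps, and nuclei were counted after 5 days.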

[2] = compound: CS(=O)(=O)c1ccc(-c2cnc(N)c(C(=O)Nc3ccccc3)n2)cc1 [VE-821] + Cc1nc(NC(=O)N2CCC[C@H]2C(N)=O)sc1-c1ccnc(C(C)(C)C(F)(F)F)c1 [Alpelisib] (partner 2 µM)
Summary of the method: as §1

[3] = compound: N#CC[C@H](C1CCCC1)n1cc(-c2ncnc3[nH]ccc23)cn1 [Ruxolitinib] + O=C(CCCCCCC(=O)Nc1ccccc1)NO [Vorinostat] (partner 1 µM)
Summary of the method: as §1

[4] = compound: CS(=O)(=O)c1ccc(-c2cnc(N)c(C(=O)Nc3ccccc3)n2)cc1 [VE-821] + CC1(C)CCC(c2ccc(Cl)cc2)=C(CN2CCN(c3ccc(C(=O)NS(=O)(=O)c4ccc(N[C@H](CCN5CCOCC5)CSc5ccccc5)c(S(=O)(=O)C(F)(F)F)c4)cc3)CC2)C1 [Navitoclax] (partner 0.5 µM)
Summary of the method: as §1

UMC-11
relative viability ([1]; first compound 0.08 µM): 0.184
relative viability ([1]; first compound 0.253 µM): 0.196
relative viability ([1]; first compound 0.8 µM): 0.168
relative viability ([1]; first compound 2.53 µM): 0.194
relative viability ([1]; first compound 8 µM): 0.225
relative viability ([2]; first compound 0.08 µM): 1.23
relative viability ([2]; first compound 0.253 µM): 0.946
relative viability ([2]; first compound 0.8 µM): 1.03
relative viability ([2]; first compound 2.53 µM): 0.935
relative viability ([2]; first compound 8 µM): 0.437
relative viability ([3]; first compound 0.08 µM): 0.362
relative viability ([3]; first compound 0.253 µM): 0.384
relative viability ([3]; first compound 0.8 µM): 0.452
relative viability ([3]; first compound 2.53 µM): 0.48
relative viability ([3]; first compound 8 µM): 0.386
relative viability ([4]; first compound 0.08 µM): 0.358
relative viability ([4]; first compound 0.253 µM): 0.344
relative viability ([4]; first compound 0.8 µM): 0.332
relative viability ([4]; first compound 2.53 µM): 0.302
relative viability ([4]; first compound 8 µM): 0.222
